# Assay results published in BindingDB's records for doi:10.7270/Q2319T8T (The Scripps Research Institute Molecular Screening Center, 2007).
# Where a name gives a salt, the structure may show the parent alone.
# Target: Steroidogenic factor 1 (Homo sapiens, UniProt Q13285)
# Experiment: SF-1 inhibitor potency, dose response, cell-based, CHO-K1, Gal4-SF-1 LBD, luciferase luminescence (AID 600)
# [1] = inactive by the depositor's call
# Sequence of Steroidogenic factor 1 (Q13285 whole entry, the tested form may be a part): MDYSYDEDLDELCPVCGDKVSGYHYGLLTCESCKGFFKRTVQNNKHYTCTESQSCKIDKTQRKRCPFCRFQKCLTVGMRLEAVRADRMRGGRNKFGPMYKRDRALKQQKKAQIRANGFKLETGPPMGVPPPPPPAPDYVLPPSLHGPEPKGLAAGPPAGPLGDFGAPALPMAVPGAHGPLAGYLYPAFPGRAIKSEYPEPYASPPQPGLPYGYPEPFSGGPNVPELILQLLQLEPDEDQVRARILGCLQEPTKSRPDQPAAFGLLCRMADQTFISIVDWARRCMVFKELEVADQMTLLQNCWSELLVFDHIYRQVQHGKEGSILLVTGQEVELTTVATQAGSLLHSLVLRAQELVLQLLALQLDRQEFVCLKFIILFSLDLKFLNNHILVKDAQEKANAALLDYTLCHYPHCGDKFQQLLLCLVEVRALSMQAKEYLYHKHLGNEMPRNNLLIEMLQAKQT
Compound,IC50 [1] [µM],IC50 [µM]
"Oc1ccc(N2CCN(c3ncnc4sc5c(c34)CCC5)CC2)cc1 [4-[4-(7,8-dihydro-6H-cyclopenta[4,5]thieno[1,2-c]pyrimidin-1-yl)-1-piperazinyl]phenol]",13.7,
"O=C(CC=Nc1ccc2c(c1)OCO2)c1ccccn1 [(Z)-3-(1,3-benzodioxol-5-ylamino)-1-(2-pyridinyl)-2-propen-1-one]",,13.6
"COc1cc(C2C3=C(N=C(C)C2C#N)c2ccccc2C3=O)cc(OC)c1OC (stereo unspecified) [2-methyl-5-oxidanylidene-4-(3,4,5-trimethoxyphenyl)-1,4-dihydroindeno[1,2-b]pyridine-3-carbonitrile]",,> 1.22
"Cc1nn(-c2ccccc2)c(C)c1C(=O)OCC(=O)c1c(N)n(CC(C)C)c(=O)n(C)c1=O [3,5-dimethyl-1-phenyl-4-pyrazolecarboxylic acid [2-[4-amino-1-methyl-3-(2-methylpropyl)-2,6-dioxo-5-pyrimidinyl]-2-oxoethyl] ester]",30.3,
"Cc1ccc(-c2csc(N3CCC(NS(=O)(=O)c4ccc5c(c4)OCCO5)CC3)n2)cc1 [N-[1-[4-(4-methylphenyl)-1,3-thiazol-2-yl]piperidin-4-yl]-2,3-dihydro-1,4-benzodioxine-6-sulfonamide]",11.3,
"COc1ccc(CC(=O)Nc2cccc(-c3nnc(-c4cccc(C)c4)o3)c2)cc1OC [2-(3,4-dimethoxyphenyl)-N-[3-[5-(3-methylphenyl)-1,3,4-oxadiazol-2-yl]phenyl]acetamide]",,> 3.67
"Nc1nnnn1N=C/C(Br)=C/c1ccccc1 [1-[[(Z)-2-bromanyl-3-phenyl-prop-2-enylidene]amino]-1,2,3,4-tetrazol-5-amine]",,3.17
O=C(O)c1cccc(COc2ccc(CO)cc2Cl)c1 [3-[(2-chloro-4-methylol-phenoxy)methyl]benzoic acid],,0.547
"COc1ccc(/N=c2\scc(-c3ccc(S(=O)(=O)N4CCOCC4)cc3)n2CCCO)cc1 [3-[(2Z)-2-[(4-methoxyphenyl)imino]-4-[4-(morpholin-4-ylsulfonyl)phenyl]-1,3-thiazol-3(2H)-yl]propan-1-ol]",,21.9
"COc1ccc(O)c(C(=O)CC(=O)c2ccc(F)cc2)c1 [1-(4-fluorophenyl)-3-(2-hydroxy-5-methoxy-phenyl)propane-1,3-dione]",,> 11
Cc1ccc(S(=O)(=O)Nc2cccc3ncccc23)s1 [5-methyl-N-quinolin-5-ylthiophene-2-sulfonamide],,5.75
COc1cc2nc(CN3CC=C(c4ccccc4)CC3)nc(O)c2cc1OC [MLS000053305],,1.3
"Cc1csc(SCC(=O)c2cc(C)n(Cc3cccs3)c2C)n1 [1-[2,5-dimethyl-1-(2-thenyl)pyrrol-3-yl]-2-[(4-methylthiazol-2-yl)thio]ethanone]",,> 3.67
Cc1ccc(Nc2cc(C)nn2-c2nc(C)cc(O)n2)cc1 [6-methyl-2-[3-methyl-5-(4-methylanilino)pyrazol-1-yl]-1H-pyrimidin-4-one],,4.32
"Cc1ccc(-c2nc(-c3ccccn3)no2)cc1Cl [5-(3-chloranyl-4-methyl-phenyl)-3-pyridin-2-yl-1,2,4-oxadiazole]",,> 1.22
"c1ccc(-c2cccc(-c3ccccn3)n2)nc1 [2,6-bis(2-pyridinyl)pyridine]",10.3,
"COc1ccc(-c2nnc(NC(=O)c3ccc(S(=O)(=O)N4COCC4(C)C)cc3)o2)cc1 [4-(4,4-dimethyloxazolidin-3-yl)sulfonyl-N-[5-(4-methoxyphenyl)-1,3,4-oxadiazol-2-yl]benzamide]",13.5,
"COc1cc(NS(=O)(=O)c2ccc(C)cc2C)cc(OC)c1OC [2,4-dimethyl-N-(3,4,5-trimethoxyphenyl)benzenesulfonamide]",,> 11
"Cc1ccc2nc(-c3ccccc3)cn2c1 [6-methyl-2-phenyl-imidazo[1,2-a]pyridine;hydrobromide]",,1.96
"COc1ccc(CCNc2c(C)c(C)nc3ncnn23)cc1 [(5,6-Dimethyl-[1,2,4]triazolo[1,5-a]pyrimidin-7-yl)-[2-(4-methoxy-phenyl)-ethyl]-amine]",15.1,
"COc1ccc(-c2cc3nc4n(c(=O)c3s2)CCOC4)cc1 [2-(4-methoxyphenyl)-7,8-dihydro-5H-thieno[1,2]pyrimido[4,5-a][1,4]oxazin-10-one]",,6.7

Compound,IC50 [1] [µM],IC50 [µM]
"Cc1nc2nc(-c3ccccc3)cn2nc1C [2,3-dimethyl-6-phenyl-imidazo[1,2-b][1,2,4]triazine]",,> 11
"COc1ccc(CC(=O)Nc2ccc(-c3nnc(-c4ccccc4)o3)cc2)cc1OC [2-(3,4-dimethoxyphenyl)-N-[4-(5-phenyl-1,3,4-oxadiazol-2-yl)phenyl]acetamide]",,2.44
[H][C@@]12C[N@@](CCc3c([nH]c4ccccc34)[C@@](C(=O)OC)(c3cc4c(cc3OC)N(C=O)[C@]3([H])[C@]45CC[N@@]4CC=C[C@@](CC)([C@@H](OC(C)=O)[C@]3(O)C(=O)OC)[C@]45[H])C1)C[C@](O)(CC)C2,,3.56
"CCOc1ccc(-c2nnc(-c3ccco3)o2)cc1 [2-(2-furyl)-5-p-phenetyl-1,3,4-oxadiazole]",,5.29
"COc1ccc(OC)c(Nc2nc(-c3ccc(O)c(O)c3)cs2)c1 [4-[2-(2,5-Dimethoxy-phenylamino)-thiazol-4-yl]-benzene-1,2-diol]",,> 3.67
"Cc1ccc(-c2nsc3c(N4CCC(C(N)=O)CC4)ncnc23)cc1 [1-(3-p-Tolyl-isothiazolo[4,5-d]pyrimidin-7-yl)-piperidine-4-carboxylic acid amide]",,0.221
"CC(C)NCC(O)Cn1c2c(c3ccccc31)CCc1c-2cnn1-c1ccccc1 (stereo unspecified) [1-(3-phenyl-4,5-dihydropyrazolo[4,3-a]carbazol-10-yl)-3-(propan-2-ylamino)-2-propanol]",,5.85
"O=C(NC1CC1)c1ccc(-c2nc3ccccc3s2)s1 [5-(1,3-benzothiazol-2-yl)-N-cyclopropyl-2-thiophenecarboxamide]",,2.81
"COC(=O)c1sc(NC(=O)c2ccc(OC)cc2OC)nc1C [2-[(2,4-dimethoxybenzoyl)amino]-4-methyl-thiazole-5-carboxylic acid methyl ester]",,2.86
"CCc1ccc2oc(-c3cc(N=Cc4cccc(OC)c4O)ccc3O)nc2c1 [(6E)-6-[[[(3E)-3-(5-ethyl-3H-1,3-benzoxazol-2-ylidene)-4-keto-cyclohexa-1,5-dien-1-yl]amino]methylene]-2-methoxy-cyclohexa-2,4-dien-1-one]",,5.66
"COc1ccc(NC(=O)N2CCCC(c3nc(-c4ccc(C(C)C)cc4)no3)C2)cc1 (stereo unspecified) [3-[3-(4-Isopropyl-phenyl)-[1,2,4]oxadiazol-5-yl]-piperidine-1-carboxylic acid (4-methoxy-phenyl)-amide]",14,
"COc1cc(C2c3ccc(N(C)C)cc3OC(=N)C2C#N)cc2c1OCO2 (stereo unspecified) [2-amino-7-(dimethylamino)-4-(7-methoxy-1,3-benzodioxol-5-yl)-4H-1-benzopyran-3-carbonitrile]",,> 3.67
"Cc1nnc(SC(=O)N2c3ccccc3Sc3ccccc32)s1 [10-phenothiazinecarbothioic acid S-(5-methyl-1,3,4-thiadiazol-2-yl) ester]",,5.38
"O=C1C(=CNc2ccc3c(c2)OCO3)CCc2ccccc21 [(2E)-2-[(1,3-benzodioxol-5-ylamino)methylene]tetralin-1-one]",12.3,
"COc1ccc(CC(=O)Nc2ccc(-c3nnc(-c4ccccc4)o3)cc2)cc1 [2-(4-methoxyphenyl)-N-[4-(5-phenyl-1,3,4-oxadiazol-2-yl)phenyl]acetamide]",18.3,
"COc1cccc(N2CCN(c3ncnc4c3[nH]c3ccc(F)cc34)CC2C)c1 (stereo unspecified) [8-fluoranyl-4-[4-(3-methoxyphenyl)-3-methyl-piperazin-1-yl]-5H-pyrimido[5,4-b]indole]",,2.07
"COc1cccc(CNC(=O)c2nnn(CC(=O)Nc3ccc(C)c(C)c3)c2N)c1 [5-amino-1-[2-(3,4-dimethylanilino)-2-keto-ethyl]-N-m-anisyl-triazole-4-carboxamide]",,8.72
CCOC(=O)N1CCC(NC(=O)C2CCCN(Cc3nc(-c4cccc(Cl)c4)oc3C)C2)CC1 (stereo unspecified) [4-[[1-[[2-(3-chlorophenyl)-5-methyl-oxazol-4-yl]methyl]nipecotoyl]amino]piperidine-1-carboxylic acid ethyl ester],11.3,
"c1csc(CNc2ncnc3sccc23)c1 [2-thenyl(thieno[2,3-d]pyrimidin-4-yl)amine]",,3.49
"Cc1cccc2cc(C#N)c(SCC(=O)N3CC(=O)Nc4ccccc43)nc12 [2-[[2-keto-2-(3-keto-2,4-dihydroquinoxalin-1-yl)ethyl]thio]-8-methyl-quinoline-3-carbonitrile]",,> 3.67

# Next, values leading:
IC50 [1] [µM],IC50 [µM],Compound
,4,CC(=O)Nc1ccc(SCC(=O)c2cc(C)n(Cc3cccs3)c2C)cc1 [MLS000058142]
,2.78,CC(=O)Nc1ccccc1OCC(=O)c1cc(C)n(Cc2cccs2)c1C [MLS000056239]
,1.55,"O=C(Nc1nc2ccccc2[nH]1)c1ccccc1F [N-1,3-dihydro-2H-benzimidazol-2-ylidene-2-fluorobenzamide]"
13.5,,N#C/C(=C\c1ccc(O)c(O)c1)C(=O)NCCCc1ccccc1 [MLS000069704]
,5.24,O=C(NC1=NCCS1)C1COc2ccccc2O1 (stereo unspecified) [MLS000056062]
,4.2,O=C(Nc1ccccc1)c1cccc(-c2nnc(-c3ccccc3)o2)c1 [MLS000100081]
,> 3.67,Cc1cccc(-n2ncc3c(N(C)C4CCCCC4)ncnc32)c1 [MLS000100814]
,> 3.67,COc1cc(NS(=O)(=O)c2ccc(C)cc2)c2ncccc2c1 [SMR000071147]
,5.09,Nc1ccc(-c2nc3c(Cl)cc(N)cc3[nH]2)cc1 [MLS000034140]
,2.41,CN(C)c1ccc(NC(=S)c2ccccn2)cc1 [MLS000111989]
13.7,,O=C(Nc1nnc(C2CC2)o1)c1ccc(S(=O)(=O)N2CCCc3ccccc32)cc1 [MLS000116109]
15.6,,c1ccc(CN2CCN(c3ncnc4c3[nH]c3ccccc34)CC2)cc1 [MLS000078384]
,9.03,c1ccc2c(c1)CCN(c1ncnc3c1[nH]c1ccccc13)C2 [SMR000039631]
15.6,,CC(=O)c1sc(NC(=O)C2(F)C(F)(F)C(F)(F)C(F)(F)C(F)(F)C2(F)F)nc1C [MLS000040071]
,2.38,c1ccc2nc(-c3nc4ccccc4[nH]3)ccc2c1 [SMR000008748]
